In assay [1] the test system is Trypanosoma brucei Lister 427 VSG221 with APOL1 G0 recombinant protein. Briefly: APOL1 G0 trypanosome cell rescue assay (Example B5). As to conditions: Trypanosoma brucei, 20 h, read-out: APOL1 G0 Trypanosome Rescue EC50, Trypanosoma brucei Lister 427 VSG221 with APOL1 G0 recombinant protein, 20 hours, CellTiter-Glo; geometric mean of at least 2 assay runs; † = single assay run. The assay is classed as cell-based. Summed up:
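Recombinant APOL1 protein, dispensed from a 2 μg/mL stock, and 250 T. brucei per well were co-incubated with test compound (0.4% DMSO) for 20 h. Viability: CellTiter-Glo luminescence.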
In general terms: ATP-based viability assays read luminescence as a measure of living cells.

In assay [2] the test system is HEK293 clonal cell line overexpressing APOL1 G1. Briefly: APOL1 G1 HEK293 cell rescue assay (Example B3). The assay is classed as cell-based. The following applies: Homo sapiens, HEK293, HEK293 clonal line overexpressing APOL1 G1; geometric mean of at least 2 runs; † = single run; ¥ = concentration at 50% rescue estimated (no sigmoidal curve). Summed up: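 Rescue of cell death caused by APOL1 G1 overexpression was measured in a clonal HEK293 line. Compounds were tested in duplicate on one plate, and EC50s were geometric means across at least two runs on different days. Some values are estimated 50%-rescue concentrations where curve fitting failed.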

The values that follow come from US12344610B2, “APOL1 inhibitors and methods of use” (Maze Therapeutics, Inc., priority 2022, dated 2025).

pEC50: −log10 of the molar value.

As usually defined, the pEC50 is the negative decadic logarithm of the EC50, by convention in mol/L. With `C[C@]1(O)C[C@@H](N2C(=O)OCc3cc(OCCN4CCC5(CC4)C(=O)Nc4ccc(Cl)cc45)cnc32)C1` [Compound 289, 5-chloro-1′-[2-({2-oxo-1-[(cis)-3-hydroxy-3-methylcyclobutyl]-1H,2H,4H-pyrido[2,3-d][1,3]oxazin-6-yl]oxy)ethyl]-1,2-dihydrospiro[indole-3,4′-piperidin]-2-one], the pEC50 in assay [1] is 7.42; in assay [2], 7.30.
With `CC1(O)CN(c2ncc(OCCN3CCC4(CC3)C(=O)Nc3ccc(Cl)cc34)cn2)C1` [Compound 300, 5-chloro-1′-(2-{[2-(3-hydroxy-3-methylazetidin-1-yl)pyrimidin-5-yl]oxy}ethyl)-1,2-dihydrospiro[indole-3,4′-piperidin]-2-one], the negative logarithm of the EC50 (pEC50) was 6.43 in assay [1] and 6.74 in assay [2].
As to `O=C1Nc2ccc(Cl)cc2C12CCN(CCOc1cnc(N3CC(O)C3)nc1)CC2` [Compound 301, 5-chloro-1′-(2-{[2-(3-hydroxyazetidin-1-yl)pyrimidin-5-yl]oxy}ethyl)-1,2-dihydrospiro[indole-3,4′-piperidin]-2-one], the pEC50 is 6.49 in assay [1] and 6.72 in assay [2].
Take `CS(=O)(=O)C1CN(c2ncc(OCCN3CCC4(CC3)C(=O)Nc3ccc(Cl)cc34)cn2)C1` [Compound 302, 5-chloro-1′-(2-{[2-(3-methanesulfonylazetidin-1-yl)pyrimidin-5-yl]oxy}ethyl)-1,2-dihydrospiro[indole-3,4′-piperidin]-2-one]: the results for the pEC50 in assay [1] and in assay [2] were 6.45 and 6.63, respectively.
`CC(C)(O)c1ncc(OCCN2CCC3(CC2)C(=O)Nc2ccc(Cl)cc23)cn1` [Compound 305, 5-chloro-1′-(2-{[2-(2-hydroxypropan-2-yl)pyrimidin-5-yl]oxy}ethyl)-1,2-dihydrospiro[indole-3,4′-piperidin]-2-one]: the pEC50 in assay [1] is 6.73; in assay [2] it was 6.76.
With `CC1(O)CN(c2nccc3cc(OCCN4CCC5(CC4)C(=O)Nc4ccc(Cl)cc45)cnc23)C1` [Compound 306, 5-chloro-1′-(2-{[8-(3-hydroxy-3-methylazetidin-1-yl)-1,7-naphthyridin-3-yl]oxy}ethyl)-1,2-dihydrospiro[indole-3,4′-piperidin]-2-one], the pEC50 in assay [1] was 7.43; in assay [2] it was 6.61.
Consider `O=C1Nc2ccc(Cl)cc2C12CCN(CCOc1cnc3c(N4CC(O)C4)nccc3c1)CC2` [Compound 314, 5-chloro-1′-(2-{[8-(3-hydroxyazetidin-1-yl)-1,7-naphthyridin-3-yl]oxy}ethyl)-1,2-dihydrospiro[indole-3,4′-piperidin]-2-one], for which the negative-log EC50 (pEC50) in assay [1] was 7.60; in assay [2], 7.27.
